Results taken from PMC10233092, “Selective Janus kinase 1 inhibition resolves inflammation and restores hair growth offering a viable treatment option for alopecia areata” (Skin Health and Disease, 2023).
Where two headings read alike, the source gives them in different places.

Legend:
[1] = tested on: Human Peripheral Blood Mononuclear Cells (PBMCs); experiment: Cytokine release from anti-CD3-stimulated human PBMCs; format: cell-based; conditions: anti-CD3, 40-48h, 4 healthy donors, linear regression
Experimental: Human Peripheral Blood Mononuclear Cells (PBMCs) were isolated by Sepmate technique (Stemcell Technologies) from heparinized venous blood from healthy volunteers. Primary human CD8^+ T‐cells were further isolated using a CD8^+ T cell Isolation Kit according to protocol (Miltenyi Biotec). Experiments were approved by the local ethical committee in Gothenburg (033‐11).
Soluble anti‐CD28 were added to the CD8^+ cultures to facilitate co‐stimulation. After 40–48 h, supernatants were harvested for mediator analysis and the cells were washed and resuspended in RLT buffer (Qiagen) for RNA isolation.
Analysis of human cytokine panels was carried out using a Luminex assay kit from Merck Millipore (Cat# HCYTMAG‐60K‐PX41) and Mesoscale Discovery (MSD) immunoassay kits (Cat# K211AEB‐2 and K15049D) as recommended in the respective supplier protocols.

[2] = tested on: C3H/HeJ mouse model of AA; experiment: Circulating cytokines in mouse plasma, Luminex; format: in vivo; conditions: at 4 weeks
Experimental: A Luminex assay kit from Merck Millipore (Cat# MTH17MAG‐47K) was used and the analysis carried out according to the supplier protocols.

[3] = C3H/HeJ, mouse, in vivo
[4] = tested on: C3H/HeJ mouse model of AA; experiment: Cellularity and flow cytometry of spleen and skin draining lymph nodes; format: in vivo; conditions: AA mice
Experimental: Cutaneous lymph nodes and spleens from mice treated either orally or topically (treated and untreated side, respectively) were pooled and minced in DPBS/2% FBS/2 mM EDTA, filtered through […] strainers and spun at 350 g for 5 min. Blood was collected in EDTA‐coated tubes and red blood cells were lysed using BD FACS lysing solution (as was red blood cells from spleen single cell suspensions). Cell differential were obtained from haematology analyzer Sysmex XE‐2100 (Sysmex Corporation, Japan). Equal cell numbers for each sample were incubated with anti‐mouse CD16/CD32 block to prevent unspecific binding and then stained for 30 min at 4°C with the following anti‐mouse antibodies (all from BD); FITC CD3e (145‐2C11), APC‐Cy7 TCRβ (H‐57‐597), BV510 or BV786 CD8α (53‐6.7), BV711 NKG2D (Cx5), BUV395 CD4 (GK1.5), BV711 or BV605 CD44 (IM7), BUV395 CD45 (30‐F11), PerCP‐Cy5.5 CD19 (1D3) and PE‐Cy7 CD62L (MEL‐14). […] The cells were analyzed on a BD LSRII flow cytometer and analysis was performed with FlowJo (Tree Star) software.

[5] = Local JAK1i group, Mean±95% CI, n=6
[6] = Systemic JAK1i group, Mean±95% CI, n=6

Cc1cnc(Nc2cccnc2F)nc1-c1c[nH]c2c(NC(=O)[C@@H](C)N3CCN(C)CC3)cccc12 [Cmpd A]
release of TNFα, IL-1RA, IP-10, IL-17 and MIP-1β from PBMC compared with Ruxo and Tofa [1]: significantly differently released

COCC(C(=O)Nc1cccc2c(-c3nc(Nc4cccc(S(C)(=O)=O)c4F)ncc3F)c[nH]c12)N1CCN(C)CC1 (centres unmarked) [Cmpd C]
IFN-γ in mouse plasma [2, 5]: 42 (±14) pg/mL
IL-1β in mouse plasma [2, 5]: 2.4 (±0.5) pg/mL
IL-2 in mouse plasma [2, 5]: 6.2 (±1.6) pg/mL
IL-10 in mouse plasma [2, 5]: 2.9 (±1.4) pg/mL
IL-13 in mouse plasma [2, 5]: 37 (±2.9) pg/mL
IL-17A in mouse plasma [2, 5]: 15 (±2.4) pg/mL
IL-22 in mouse plasma [2, 5]: 35 (±25) pg/mL
IL-23 in mouse plasma [2, 5]: 148 (±95) pg/mL
IL-33 in mouse plasma [2, 5]: 76 (±58) pg/mL
TNFα in mouse plasma [2, 5]: 7.3 (±0.8) pg/mL
IL-6 in mouse plasma ([2]; Local JAK1i group, only one value within detection range): 2.8 (±NA) pg/mL
IFN-γ in mouse plasma [2, 6]: 49 (±21) pg/mL
IL-2 in mouse plasma [2, 6]: 4.5 (±1.5) pg/mL
IL-6 in mouse plasma [2, 6]: 2.9 (±2.3) pg/mL
IL-10 in mouse plasma [2, 6]: 2.4 (±0.7) pg/mL
IL-13 in mouse plasma [2, 6]: 33 (±13) pg/mL
IL-17A in mouse plasma [2, 6]: 15 (±4.2) pg/mL
IL-22 in mouse plasma [2, 6]: 42 (±31) pg/mL
IL-23 in mouse plasma [2, 6]: 206 (±333) pg/mL
IL-33 in mouse plasma [2, 6]: 32 (±17) pg/mL
TNFα in mouse plasma [2, 6]: 6.3 (±2.0) pg/mL
IL-1β in mouse plasma ([2]; Systemic JAK1i group, only one value within detection range): 2.0 (±NA) pg/mL
estimated average free exposure in plasma over IC50 [3]: 0.02 fold IC50
estimated average free exposure in skin over IC50 [3]: 0.43 fold IC50
estimated average free exposure in plasma over IC50 ([3]; po, 2 weeks): 1.4 fold IC50
estimated average free exposure in skin over IC50 ([3]; po, 2 weeks): 0.5 fold IC50
hypercellularity of skin draining LNs and spleen ([4]; systemic (oral 12.5 mg/kg/day, 2 weeks)): drastically reduced
hypercellularity of skin draining LNs and spleen ([4]; topical treatment (0.01% cream, 2 weeks)): only marginally affected
